Measured values from paper PMC6348924, “Detection of Active Caspase-3 in Mouse Models of Stroke and Alzheimer's Disease with a Novel Dual Positron Emission Tomography/Fluorescent Tracer [^68Ga]Ga-TC3-OGDOTA” (Contrast Media & Molecular Imaging, 2019).

System: primary cortical neuronal cultures treated with CPT
Assay: Ga-TC3-OGDOTA accumulation in CPT toxicity assay
Type: cell-based, mouse
Conditions: 10 μM CPT, 24 h
Protocol: For the in vitro cell culture studies, primary hippocampal and cortical neuronal cultures were prepared from E17 mouse embryos as described previously and cultured in regular neuronal medium (RNM) containing 1x B27, 0.5 mM glutamine, 0.25% glucose in Neurobasal medium (Invitrogen).
Three different conditions known to induce neuronal apoptosis were used to study Ga-TC3-OGDOTA uptake in cell culture: camptothecin (CPT) toxicity, OGD, and AβO toxicity. […] For the CPT toxicity assay, cortical neurons were treated with 0 (control) or 10 μM CPT (Sigma-Aldrich) for 24 h at normal conditions (5% CO2, 37°C). After that the cultures were washed with RNM and incubated with various concentrations of Ga-TC3-OGDOTA for 7 h, followed by either direct live imaging or fixation with 4% paraformaldehyde (PFA) in PBS for staining. […]
For coimaging of Hoechst 33342 (Hoechst), 4′,6′-Diamidino-2-Phenylindole (DAPI), Oregon Green and CC3, fixed cultures were immunostained with anti-CC3 antibody (1 : 500, Cell Signaling, cat#9661) followed by antirabbit secondary antibody and DAPI or Hoechst. […] Cells positive for tracer, CC3, and total number of cells were counted using the ImageJ (NIH, Bethesda, MD) Cell Counter plugin and their ratio was compared between the treatments.

`CC[C@@]1(O)C(=O)OCc2c1cc1n(c2=O)Cc2cc3ccccc3nc2-1` [CPT, camptothecin] was tested, and the “effect on number of apoptotic neurons in the culture” value was “elevated”.
